The values below are quoted from earlier work in US20080279776A1, “Photosensitizers and MRI Enhancers” (Photo Diagnostic Devices (PDD) Limited, priority 2005, published 2008).

The conditions of the data set: readings taken as a prototype.

For “18-carboxy-20-(carboxymethyl)-8-ethenyl-13-ethyl-2,3-dihydro-3,7,12,17-tetramethyl-21H,23H-porphine-2-propanoic acid [Chlorine-e6]”, the LD10 is on record as 119 mg/kg weight and the LD50 is given as 160 mg/kg weight.
